Literature values in patent US20110251396A1, “Enantiomeric compositions of cicletanine, alone and in combination with other agents, for the treatment of disease” (Gilead Sciences, Inc., priority 2003, published 2011).
Read-outs that look alike come from different tables or passages of the source.

Assays:
[1] = test system: T-type voltage-gated plasma membrane calcium channels
hypertensives = details: fell from 128; 150-200 mg/day cicletanine, over 12 months
[2] = test system: patients whose blood pressure had not been normalized; details: cicletanine 50 and 100 mg per day added; all three groups
Dahl salt-sensitive rats = details: cicletanine treatment
[3] = test system: patients with type 2 diabetes

COCC(=O)O[C@]1(CCN(C)CCCc2nc3ccccc3[nH]2)CCc2cc(F)ccc2[C@@H]1C(C)C [mibefradil]
selectivity for blocking T-type over L-type calcium channels [1]: 10 to 50 times

Cc1ncc2c(c1O)COC2c1ccc(Cl)cc1 (racemic) [cicletanine]
average triglyceride levels (hypertensives): 104 mg/dL | patients with normalized blood pressure [2]: 50% | hypoglycemic effect of tolbutamide (following 7 days of cicletanine 100 mg per day): did not change | peak insulin response to tolbutamide (single intravenous dose of tolbutamide following 7 days of cicletanine 100 mg per day): 17.4 mU/L | high-density lipoprotein (HDL) cholesterol (Dahl salt-sensitive rats): increased | low-density lipoprotein (LDL) cholesterol (Dahl salt-sensitive rats): significantly decreased

CCCCNC(=O)NS(=O)(=O)c1ccc(C)cc1 [tolbutamide]
peak insulin response to tolbutamide (single intravenous dose of tolbutamide alone, before cicletanine administration): 29.2 mU/L

CN(C)C(=N)N=C(N)N [Metformin]
patients with gastrointestinal side effects ([3]; diarrhea, nausea, abdominal pain, metallic taste): 20% to 30% | weight loss ([3]; first 6 months of treatment): 2 to 3 kg | decrease of low-density lipoprotein (LDL) cholesterol levels ([3]; monotherapy): 10% to 15% | decrease of plasma triglyceride levels ([3]; monotherapy): 10% to 15%
